Measured values from patent publication US10336730B2, “Substituted glycine derived FXIA inhibitors” (BRISTOL-MYERS SQUIBB COMPANY, priority 2015, dated 2019).

biological target: T1, purified human Factor XIa (Homo sapiens, UniProt P03951); assay: Factor XIa enzyme inhibition assay (chromogenic substrate S-2366), Ki; assay type: biochemical; settings: substrate S-2366, pH 7.4
T1 construct: purchased Haematologic Technologies
Method: The effectiveness of compounds of the present invention as inhibitors of the coagulation Factors XIa, VIIa, IXa, Xa, XIIa, plasma kallikrein, thrombin, chemytrypsin or trypsin can be determined using a relevant purified serine protease, respectively, and an appropriate synthetic substrate. The rate of hydrolysis of the chromogenic or fluorogenic substrate by the relevant serine protease was measured both in the absence and presence of compounds of the present invention. […] A decrease in the rate of absorbance or fluorescence change in the presence of inhibitor is indicative of enzyme inhibition. Such methods are known to one skilled in the art. The results of this assay are expressed as the inhibitory constant, Ki.
Factor XIa determinations were made in 50 mM HEPES buffer at pH 7.4 containing 145 mM NaCl, 5 mM KCl, and 0.1% PEG 8000 (polyethylene glycol; JT Baker or Fisher Scientific). Determinations were made using purified human Factor XIa at a final concentration of […] (Haematologic Technologies) and the synthetic substrate S-2366 (pyroGlu-Pro-Arg-pNA; CHROMOGENIX® or AnaSpec) at a concentration of 0.0002-0.001 M.
Values of Ki were determined by allowing the protease to react with the substrate in the presence of the inhibitor. Reactions were allowed to go for periods of 20-180 minutes (depending on the protease) and the velocities (rate of absorbance or fluorescence change versus time) were measured. The following relationships were used to calculate Ki values: (Vmax*S)/(Km+S) (vo−vs)/vs=I/(Ki*(1+S/Km)) for a competitive inhibitor with one binding site; or vs/vo=A+(B−A)/(1+(IC50/(I)^n)); and Ki=IC50/(1+S/Km) for a competitive inhibitor where: […]

T1 sequence (P03951 388-625 limits assumed): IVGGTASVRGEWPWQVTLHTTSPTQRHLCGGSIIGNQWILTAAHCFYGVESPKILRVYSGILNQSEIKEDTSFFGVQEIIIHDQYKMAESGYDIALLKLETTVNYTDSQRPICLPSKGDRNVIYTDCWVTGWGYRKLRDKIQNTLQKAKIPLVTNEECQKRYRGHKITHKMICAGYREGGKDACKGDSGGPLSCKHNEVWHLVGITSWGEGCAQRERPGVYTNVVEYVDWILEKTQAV
T1 sequence (P03951 19-387 partner limits assumed): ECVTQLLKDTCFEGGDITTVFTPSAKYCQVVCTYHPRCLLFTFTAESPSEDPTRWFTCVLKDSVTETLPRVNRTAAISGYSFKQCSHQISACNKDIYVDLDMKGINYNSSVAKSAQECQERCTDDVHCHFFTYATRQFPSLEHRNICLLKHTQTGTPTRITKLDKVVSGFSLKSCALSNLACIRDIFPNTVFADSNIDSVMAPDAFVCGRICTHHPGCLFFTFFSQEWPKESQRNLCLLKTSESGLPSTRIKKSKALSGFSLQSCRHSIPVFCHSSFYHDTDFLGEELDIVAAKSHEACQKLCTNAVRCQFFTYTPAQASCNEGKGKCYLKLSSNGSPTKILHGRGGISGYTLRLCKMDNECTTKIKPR

Compound	Ki
CN1CCC(CNC(=O)[C@H](Cc2ccccc2)n2cnc(-c3cc(Cl)ccc3-n3cc(Cl)nn3)cc2=O)C1 (mixture of isomers) [Example 48, (2S)-2-(4-(5-chloro-2-(4-chloro-1H-1,2,3-triazol-1-yl)phenyl)-6-oxopyrimidin-1(6H)-yl)-N-((1-methylpyrrolidin-3-yl)methyl)-3-phenylpropanamide]	7370 nM
O=C([C@H](Cc1ccccc1)n1cnc(-c2cc(Cl)ccc2-n2cc(Cl)nn2)cc1=O)N1CCC(N2C(=O)CCC2O)CC1 (mixture of isomers) [Example 49, 6-(5-chloro-2-(4-chloro-1H-1,2,3-triazol-1-yl)phenyl)-3-((2S)-1-(4-(2-hydroxy-5-oxopyrrolidin-1-yl)piperidin-1-yl)-1-oxo-3-phenylpropan-2-yl)pyrimidin-4(3H)-one]	7370 nM
N#Cc1cccc(C[C@@H](C(=O)Nc2ccc(C(=O)O)cc2)N2CCC(c3cc(Cl)ccc3-n3ccnn3)=CC2=O)c1 [Compound 138, (S)-4-(2-(4-(5-chloro-2-(1H-1,2,3-triazol-1-yl)phenyl)-6-oxo-3,6-dihydropyridin-1(2H)-yl)-3-(3-cyanophenyl)propanamido) benzoic Acid]	41.6 nM
NC(=O)c1cccc(C[C@@H](C(=O)Nc2ccc(C(=O)O)cc2)N2CCC(c3cc(Cl)ccc3-n3ccnn3)=CC2=O)c1 [Compound 139, (S)-4-(3-(3-carbamoylphenyl)-2-(4-(5-chloro-2-(1H-1,2,3-triazol-1-yl)phenyl)-6-oxo-3,6-dihydropyridin-1(2H)-yl)propanamido)benzoic Acid]	25.2 nM
COC(=O)c1ccc(NC(=O)[C@H](Cc2ccccc2)n2cnc(-c3cc(Cl)ccc3-n3cc(Cl)nn3)cc2=O)cc1 [Example 22, methyl (S)-4-(2-(4-(5-chloro-2-(4-chloro-1H-1,2,3-triazol-1-yl)phenyl)-6-oxopyrimidin-1(6H)-yl)-3-phenylpropanamido)benzoate]	83.7 nM
O=C(Nc1ccc(Cc2ccncc2)cc1)[C@H](Cc1ccccc1)n1cnc(-c2cc(Cl)ccc2-n2cc(Cl)nn2)cc1=O [Example 24, (S)-2-(4-(5-chloro-2-(4-chloro-1H-1,2,3-triazol-1-yl)phenyl)-6-oxopyrimidin-1(6H)-yl)-3-phenyl-N-(4-(pyridin-4-ylmethyl)phenyl)propanamide]	112 nM
Cn1cnc2cc(NC(=O)[C@H](Cc3ccccc3)n3cnc(-c4cc(Cl)ccc4-n4cc(Cl)nn4)cc3=O)cnc21 [Example 27, (S)-2-(4-(5-chloro-2-(4-chloro-1H-1,2,3-triazol-1-yl)phenyl)-6-oxopyrimidin-1(6H)-yl)-N-(3-methyl-3H-imidazo[4,5-b]pyridin-6-yl)-3-phenylpropanamide]	420 nM
O=C(Nc1ccc2c(c1)CS(=O)(=O)C2)[C@H](Cc1ccccc1)n1cnc(-c2cc(Cl)ccc2-n2cc(Cl)nn2)cc1=O [Example 28, (S)-2-(4-(5-chloro-2-(4-chloro-1H-1,2,3-triazol-1-yl)phenyl)-6-oxopyrimidin-1(6H)-yl)-N-(2,2-dioxido-1,3-dihydrobenzo[c]thiophen-5-yl)-3-phenylpropanamide]	80.3 nM
O=C(Nc1ccc2ncncc2c1)[C@H](Cc1ccccc1)n1cnc(-c2cc(Cl)ccc2-n2cc(Cl)nn2)cc1=O [Example 31, (S)-2-(4-(5-chloro-2-(4-chloro-1H-1,2.3-triazol-1-yl)phenyl)-6-oxopyrimidin-1(6H)-yl)-3-phenyl-N-(quinazolin-6-yl)propanamide]	10.3 nM
Cc1nc2ccc(NC(=O)[C@H](Cc3ccccc3)n3cnc(-c4cc(Cl)ccc4-n4cc(Cl)nn4)cc3=O)cc2o1 [Example 33, (S)-2-(4-(5-chloro-2-(4-chloro-1H-1,2,3-triazol-1-yl)phenyl)-6-oxopyrimidin-1(6H)-yl)-N-(2-methylbenzo[d]oxazol-6-yl)-3-phenylpropanamide]	37.8 nM
CCOC(=O)Cn1ccc(NC(=O)[C@H](Cc2ccccc2)n2cnc(-c3cc(Cl)ccc3-n3cc(Cl)nn3)cc2=O)n1 [Example 34, ethyl (S)-2-(3-(2-(4-(5-chloro-2-(4-chloro-1H-1,2,3-triazol-1-yl)phenyl)-6-oxopyrimidin-1(6H)-yl)-3-phenylpropanamido)-1H-pyrazol-1-yl)acetate]	1660 nM
O=C(Nc1cnns1)[C@H](Cc1ccccc1)n1cnc(-c2cc(Cl)ccc2-n2cc(Cl)nn2)cc1=O [Example 36, (S)-2-(4-(5-chloro-2-(4-chloro-1H-1,2,3-triazol-1-yl)phenyl)-6-oxopyrimidin-1(6H)-yl)-3-phenyl-N-(1,2,3-thiadiazol-5-yl)propanamide]	1340 nM
O=C1NCc2cc(F)c(NC(=O)[C@H](Cc3ccccc3)n3cnc(-c4cc(Cl)ccc4-n4cc(Cl)nn4)cc3=O)cc21 [Example 38, (S)-2-(4-(5-chloro-2-(4-chloro-1H-1,2,3-triazol-1-yl)phenyl)-6-oxopyrimidin-1(6H)-yl)-N-(6-fluoro-3-oxoisoindolin-5-yl)-3-phenylpropanamide]	98.4 nM

More lines, in order of falling Ki, values ahead:

Ki	Compound
4070 nM	CC1(C)Oc2ccc(NC(=O)[C@H](Cc3ccccc3)n3cnc(-c4cc(Cl)ccc4-n4cc(Cl)nn4)cc3=O)nc2NC1=O [Example 35, (S)-2-(4-(5-chloro-2-(4-chloro-1H-1,2,3-triazol-1-yl)phenyl)-6-oxopyrimidin-1(6H)-yl)-N-(2,2-dimethyl-3-oxo-3,4-dihydro-2H-pyrido[3,2-b][1,4]oxazin-6-yl)-3-phenylpropanamide]
553 nM	O=C(Nc1ncn(CC2CCCC2)n1)[C@H](Cc1ccccc1)n1cnc(-c2cc(Cl)ccc2-n2cc(Cl)nn2)cc1=O [Example 21, (S)-2-(4-(5-chloro-2-(4-chloro-1H-1,2,3-triazol-1-yl)phenyl)-6-oxopyrimidin-1(6H)-yl)-N-(1-(cyclopentylmethyl)-1H-1,2,4-triazol-3-yl)-3-phenylpropanamide]
341 nM	Cn1cc(NC(=O)[C@H](Cc2ccccc2)n2cnc(-c3cc(Cl)ccc3-n3cc(Cl)nn3)cc2=O)nn1 [Example 32, (S)-2-(4-(5-chloro-2-(4-chloro-1H-1,2,3-triazol-1-yl)phenyl)-6-oxopyrimidin-1(6H)-yl)-N-(1-methyl-1H-1,2,3-triazol-4-yl)-3-phenylpropanamide]
172 nM	COC(=O)c1cc(NC(=O)[C@H](Cc2ccccc2)n2cnc(-c3cc(Cl)ccc3-n3cc(Cl)nn3)cc2=O)cn1C [Example 40, methyl (S)-4-(2-(4-(5-chloro-2-(4-chloro-1H-1,2,3-triazol-1-yl)phenyl)-6-oxopyrimidin-1(6H)-yl)-3-phenylpropanamido)-1-methyl-1H-pyrrole-2-carboxylate]
162 nM	O=C(Nc1cccc2ncccc12)[C@H](Cc1ccccc1)n1cnc(-c2cc(Cl)ccc2-n2cc(Cl)nn2)cc1=O [Example 29, (S)-2-(4-(5-chloro-2-(4-chloro-1H-1,2,3-triazol-1-yl)phenyl)-6-oxopyrimidin-1(6H)-yl)-3-phenyl-N-(quinolin-5-yl)propanamide]
155 nM	O=C(Nc1ccc(N2CCOCC2=O)cc1)[C@H](Cc1ccccc1)n1cnc(-c2cc(Cl)ccc2-n2cc(Cl)nn2)cc1=O [Example 37, (S)-2-(4-(5-chloro-2-(4-chloro-1H-1,2,3-triazol-1-yl)phenyl)-6-oxopyrimidin-1(6H)-yl)-N-(4-(3-oxomorpholino)phenyl)-3-phenylpropanamide]
128 nM	CCOC(=O)Cc1ccc(NC(=O)[C@H](Cc2ccccc2)n2cnc(-c3cc(Cl)ccc3-n3cc(Cl)nn3)cc2=O)cc1 [Example 20, ethyl (S)-2-(4-(2-(4-(5-chloro-2-(4-chloro-1H-1,2,3-triazol-1-yl)phenyl)-6-oxopyrimidin-1(6H)-yl)-3-phenylpropanamido)phenyl)acetate]
117 nM	O=C(Nc1ccc(OC2CCOCC2)cc1)[C@H](Cc1ccccc1)n1cnc(-c2cc(Cl)ccc2-n2cc(Cl)nn2)cc1=O [Example 41, (S)-2-(4-(5-chloro-2-(4-chloro-1H-1,2,3-triazol-1-yl)phenyl)-6-oxopyrimidin-1(6H)-yl)-3-phenyl-N-(4-((tetrahydro-2H-pyran-4-yl)oxy)phenyl)propanamide]
110 nM	Cc1ncn(-c2ccc(NC(=O)[C@H](Cc3ccccc3)n3cnc(-c4cc(Cl)ccc4-n4cc(Cl)nn4)cc3=O)cn2)n1 [Example 39, (S)-2-(4-(5-chloro-2-(4-chloro-1H-1,2,3-triazol-1-yl)phenyl)-6-oxopyrimidin-1(6H)-yl)-N-(6-(3-methyl-1H-1,2,4-triazol-1-yl)pyridin-3-yl)-3-phenylpropanamide]
49.6 nM	O=C(Nc1ccc(-c2ccncc2)cc1)[C@H](Cc1ccccc1)n1cnc(-c2cc(Cl)ccc2-n2cc(Cl)nn2)cc1=O [Example 25, (S)-2-(4-(5-chloro-2-(4-chloro-1H-1,2,3-triazol-1-yl)phenyl)-6-oxopyrimidin-1(6H)-yl)-3-phenyl-N-(4-(pyridin-4-yl)phenyl)propanamide]
22.3 nM	O=C(Nc1cccc2[nH]ccc12)[C@H](Cc1ccccc1)n1cnc(-c2cc(Cl)ccc2-n2cc(Cl)nn2)cc1=O [Example 26, (S)-2-(4-(5-chloro-2-(4-chloro-1H-1,2,3-triazol-1-yl)phenyl)-6-oxopyrimidin-1(6H)-yl)-N-(1H-indol-4-yl)-3-phenylpropanamide]
